Data on 1 compound can be found in US20130005759A1, “SMALL MOLECULE MODIFIERS OF MICRORNA MIR-122” (North Carolina State University, priority 2010, published 2013).

In one assay the test system is miR-21. Description: miR-21 luciferase reporter assay in HeLa-miR-21-Luc cells. It is filed as cell-based. The note with it: 10 μM, 48 hours. As to the method: Using the previously described HeLa-miR-21-Luc cell line (a stably transfected line harboring a miR-21 binding sequence in the 3′ UTR of a firefly luciferase gene),(9) cells were grown to 80% confluency (DMEM) and treated with either DMSO, the previously reported miR-21 inhibitor, or compounds 1 and 2 at 10 μM (1% DMSO final concentration). The cells were incubated for 48 hours at 37° C. (5% CO2) and then assayed with a Bright-Glo Luciferase Kit (Promega) and analyzed using a Wallac VICTOR^3V luminometer with a measurement time of 1 s and a delay time of 2 s (FIG. 4).
(In general: Reporter assays use an easily measured gene product as a stand-in for the process of interest.)

Another assay has as its system HepG2 cells. Nature of the assay: CellTiter-Glo cell viability in HepG2 cells. It is filed as cell-based. The note with it: HepG2, 10 μM, 48 hours. (Cellular ATP, detected with luciferase, serves as a proxy for viable cell number.)
The subject of a further assay is caspase-3 and -7. Nature of the assay: Caspase-Glo 3/7 assay in HepG2 cells. The note with it: HepG2, 10 μM, 48 hours. It is filed as cell-based. From the text:
(§1) This enhanced caspase activity led to a reduced cell viability of ˜20% (CellTiter-Glo, Promega) (FIGS. 8A and B), exceeding previously reported reductions in cell viability due to lentiviral over-expression of miR-122 in HepG2 cells.^13 An increased caspase 3/7 level is observed in HepG2 cells due to activation of the pro-apoptic miR-122 (FIG. 8A). This increase is more pronounced in HepG2 than Huh7 cells, due to the different basal miR-122 levels in both cell lines. […] Thus, a small molecule activator of miR-122, like compound 3, has therapeutic relevance towards the selective treatment of HCC.
Both HepG2 and Huh7 cells were passaged into a 96-well plate and grown to 70% confluency. The media was then removed and replaced with standard growth media supplemented with 3 (10 μM) or a DMSO control (1% final DMSO concentration in all wells) and incubated for 48 hours at 37° C. All incubations were conducted in triplicate to ensure statistical validity. The media was removed and cells were assayed with the Caspase-Glo 3/7 (Promega) kit according to the manufacturers directions and luminescence was measured using a Wallac VICTOR^3V luminometer with a measurement time of 1 s and a delay time of 2 s.

Assay [1] deals with miR-122. Description: psiCHECK-miR122 dual luciferase reporter assay in Huh7 cells. Format: cell-based, human. From the text: A miRNA small molecule modifier screen for miR-122 was developed based on the psiCHECK-2 (Promega) reporter plasmid (FIG. 9). This construct expresses both Renilla luciferase as well as firefly luciferase, allowing for the normalization of the signal to account for differential cellular viability and variability in transfection efficiency. The miR-122 target sequence was inserted downstream of the Renilla luciferase gene, between the PmeI and SgfI restriction sites. In another aspect of the invention, plasmids expressing luciferase or another reporter gene such as for example, fluorescent reporters (GFP and variants thereof, DsRed, etc.) or beta-galactosidase can be used to screen for small molecule modifiers of miR-122. The mi-122 target sequence may be upstream or downstream of the reporter gene. Multiple miR-122 target sites can also be inserted into or be present in the plasmid.
The presence of mature miR-122 will lead to a decrease in the Renilla luciferase signal (FIG. 1a). The ability to detect endogenous miR-122 was validated by transfecting the generated psiCHECK-miR122 construct into Huh7 and HeLa cells. After 48 hour incubation, the cells were assayed using a Dual Luciferase Assay Kit (Promega). In another embodiment, the cells can be incubated for about 24-96 hours. The Dual Luciferase Assay Kit provides a means to measure the amount of the luciferases by generating a luminescent signal. Using this assay the luminescence from the firefly luciferase reaction may be quenched while the luminescent reaction of Renilla luciferase can be activated. Other assays and procedures that can determine the amount of the one or more reporter genes or miR-122 expression, activity or function can be used. An example of another assay is Dual-Glo Assay (Promega).
The psiCHECK-miR122 vector was then employed in a small molecule screen in Huh7 cells to discover modifiers of miR-122 function. Other cells that express miR-122 such as HepG2 and Hep3B can be used in addition to or instead of Huh7 cells. An increase in the relative Renilla luciferase signal indicates a miR-122 inhibitor, while a reduction in the luciferase signal indicates a miR-122 activator. A genus of compounds that may have activity as modifiers of miR122 function are the Diversity Set II (1364 compounds) from the NCI Developmental Therapeutics Program was screened using Huh7 cells containing the psiCHECK-miR122 reporter. Cells were exposed to the small molecules and the relative luciferase signal was measured after 48 hours using a Dual Luciferase Assay Kit (Promega). In another embodiment the cells can be exposed to the small molecules for about 24-96 hours. As explained above, other assays and procedures that can determine the amount of the one or more reporter genes or miR-122 expression, activity or function can be used.
The analogs were screened for activity using the previously described miR-122 assay. All cells were treated with 10 μM of a compound and experiments were performed in triplicate to ensure statistical validity. The data was normalized to a 1% DMSO control and is reported in relative luciferase units (RLU). The standard deviation was calculated from three independent assays. Some analogs of miR-122 inhibitor compound 1 are:
Huh7 and HeLa cells were transfected at approximately 60% confluency with either the psiCHECK-Control plasmid (the original psiCHECK-2 plasmid containing no known miRNA binding site) or the psiCHECK-miR122 plasmid (0.5 μg) using X-tremGENE transfection reagent (3:2 reagent/DNA ratio; Roche) in Opti-Mem media (Invitrogen). All transfections were performed in triplicate for statistical analysis. The cells were incubated at 37° C. for 4 hours followed by the replacement of transfection media with standard DMEM growth media. After 48 hours of incubation the media was removed, cells were lysed and assayed with a Dual Luciferase Assay Kit (Promega) using a Wallac VICTOR^3V luminometer with a measurement time of 1 s and a delay time of 2 s. […]

Assay [2] has as its system miR-122. Nature of the assay: quantitative RT PCR of mature miR-122 in Huh7 cells. Format: cell-based, human. The note with it: Huh7, 10 μM, 48 hours. On the procedure: The activity of the small molecule modifiers was analyzed by quantitative RT PCR in order to measure their direct effects on miR-122 expression levels in Huh7 cells. […] All experiments were conducted in triplicate, and the data was normalized to a DMSO control.
Each treatment was conducted in triplicate to ensure statistical validity. Cells were then incubated at 37° C. for 48 hours (DMEM, 5% CO2). The media was removed, and cells were washed with PBS buffer (2×2 mL, pH 7.4) followed by RNA isolation with the mirPremier™ microRNA Isolation Kit (Aldrich). The RNA was quantified using a Nanodrop ND-1000 spectrophotometer and 10 ng of each RNA sample was reverse transcribed using the TaqMan™ microRNA Reverse Transcription Kit (Applied Biosystems) in conjunction with either the miR-122 or miR-21 TaqMan™ RT primer (16° C., 30 min; 42° C., 30 min; 85° C., 5 min). Quantitative Real Time PCR was conducted with a TaqMan™ 2× Universal PCR Master Mix and the appropriate TaqMan™ miRNA assay (Applied Biosystems) on a BioRad MyiQ RT-PCR thermocycler (1.3 μL RT PCR product; 95° C., 10 min; followed by 40 cycles of 95° C., 15 s; 60° C. 60 s). Threshold cycles were used to determine miRNA copy numbers, and the levels of miR-122 and miR-21 were compared via determination of threshold cycle (Ct) and conversion to copy number (copy number=10[(Ct−37.4)/−3.3]).^17 The data was then normalized to the DMSO control. The samples were also analyzed by real time PCR for the presence of pri-miR-122 transcript using the previously described primers (5′ […] 3′ (SEQ ID NO:5) and 5′ […] 3′ (SEQ ID NO:6); IDT DNA) and iQ SYBR Green Supermix for the real time PCR (95° C., 3 min; followed by 40 cycles of 95° C., 15 s; 60° C. 60 s).^14

A further assay deals with Huh7 cells. Description: CellTiter-Glo cell viability in Huh7 cells. As to conditions: Huh7, exposure to compound. Format: cell-based, human.
From the text: as §1
HepG2 and Huh7 cells were passaged into a 96-well plate and grown to 60% confluency. The media was then removed and replaced with standard growth media supplemented with increasing concentrations of the miR-122 small molecule modifiers (0-20 μM; 1% final DMSO concentration) and incubated for 48 hours at 37° C. Cellular viability was then assessed using a Cell-Titer Glo Assay (Promega) according to the manufacturers directions and luminescence was measured using a Wallac VICTOR^3V luminometer with a measurement time of 1 s and a delay time of 2 s.

For `CN(C)CCN1C(=O)c2cccc3cc(N)cc(c23)C1=O` [Compound 3], the “activity in miRNA-21 reporter (luciferase signal)” value with miR-21 is listed as “No effect”. This compound also showed a reduced cell viability with HepG2 cells of roughly 20%. In addition, the “increase in the activity of caspase-3 and -7” value with caspase-3 and -7 is recorded as roughly 20 fold. In addition, the IC50 (as a rule, the concentration that inhibits the measured activity by half) in the assay with miR-122 [1] (Homo sapiens, Huh-7, Huh7, calculated from FIG. 5, read-out: IC50 (miR-122 activator, luciferase dose response)) is 370 ± 20 nM. In addition, in the assay on miR-122 [1] (Huh7, psiCHECK-miR122, 10 μM), the “reduction of the Renilla luciferase signal” value was 7 fold. In addition, in the assay with miR-122 [1] (Huh7, psiCHECK-miR122, 10 μM, mean ± SD of three independent assays), the “relative luciferase units (RLU) normalized to a DMSO control” value came to 0.11±0.02 RLU. Further, the “increase in miR-122 expression levels” value in the assay with miR-122 [2] amounted to 438%. The “cell viability (in words)” value in the assay with Huh7 cells is reported as “only slightly affected”.
